Experimental data taken from patent US10562898B2, “Substituted benzenesulfonamides as inhibitors of alpha-4 beta-7 integrin activity” (EA PHARMA CO., LTD., priority 2016, dated 2020).

biological target: T1, α4β1 integrin (Homo sapiens, UniProt P05556+P13612); experiment: VCAM-1/α4β1 integrin binding inhibitory activity evaluation test (Jurkat cells binding to VCAM-1/Fc); format: cell-based; settings: recombinant human VCAM-1/Fc
T1 construct: a cell line Jurkat, which is known to express α4β1 integrin; endogenous in cells; host or cells: Jurkat (human T cell line)
Method: (1) VCAM-1/α4β1 Integrin Binding Inhibitory Activity Evaluation Test
Each test substance was measured in terms of an ability to inhibit the VCAM-1 binding of a human T cell line, namely, a cell line Jurkat, which is known to express α4β1 integrin.
A solution of recombinant human VCAM-1/Fc (R&D Systems, Inc.) (1 μg/mL) diluted with a buffer A (carbonate buffer, pH 9.6) was placed in an amount of 50 μL/well in a 96-well microtiter plate, followed by incubation at 4° C. overnight. After the plate was washed with PBS once, 150 μL/well of Block Ace (Snow Brand Milk Products Co., Ltd.) was added, followed by incubation at room temperature for 2 hours. After removal, the plate was washed with PBS once.
Then, 100 μL of the Jurkat cells (2×10^6 cells/mL) and 100 μL of the test substance at each of various concentrations diluted with a binding buffer (DMEM containing 40 mM HEPES, 0.2% BSA, and 4 mM MnCl2) were added to the plate coated with the VCAM-1/Fc (5×10^5 cells/well), followed by incubation at 30° C. for 15 to 60 minutes. After the cells were bound to the wells, the plate was washed with PBS to remove unbound cells. A buffer C (PBS containing 1.5% Triton X-100) was added in an amount 50 μL/well to the plate to lyse the bound Jurkat cells. After 30 μL of a substrate buffer (Promega, CytoTox 96 Non-Radioactive Cytotoxicity Assay) was added to 30 μL of the cell lysate, a reaction was allowed to proceed at room temperature in the dark for 30 minutes. After 30 μL of a stop solution (Promega, CytoTox 96 Non-Radioactive Cytotoxicity Assay) was added to each, and then an absorbance at 490 nm was measured using a plate reader. The absorbance obtained here represents a detection result of an activity of lactate dehydrogenase (LDH) eluted in the supernatant of each well, that is, the absorbance is proportional to the number of Jurkat cells bound to the VCAM-1 and thus remaining on the plate. The test was performed in duplicate. Provided that the absorbance of a well containing no test substance was 100%, a cell binding rate with the test substance at each of the various concentrations was figured out, and a concentration IC50 which brought about 50% binding inhibition was calculated.

T1 sequence (P13612 34-1032): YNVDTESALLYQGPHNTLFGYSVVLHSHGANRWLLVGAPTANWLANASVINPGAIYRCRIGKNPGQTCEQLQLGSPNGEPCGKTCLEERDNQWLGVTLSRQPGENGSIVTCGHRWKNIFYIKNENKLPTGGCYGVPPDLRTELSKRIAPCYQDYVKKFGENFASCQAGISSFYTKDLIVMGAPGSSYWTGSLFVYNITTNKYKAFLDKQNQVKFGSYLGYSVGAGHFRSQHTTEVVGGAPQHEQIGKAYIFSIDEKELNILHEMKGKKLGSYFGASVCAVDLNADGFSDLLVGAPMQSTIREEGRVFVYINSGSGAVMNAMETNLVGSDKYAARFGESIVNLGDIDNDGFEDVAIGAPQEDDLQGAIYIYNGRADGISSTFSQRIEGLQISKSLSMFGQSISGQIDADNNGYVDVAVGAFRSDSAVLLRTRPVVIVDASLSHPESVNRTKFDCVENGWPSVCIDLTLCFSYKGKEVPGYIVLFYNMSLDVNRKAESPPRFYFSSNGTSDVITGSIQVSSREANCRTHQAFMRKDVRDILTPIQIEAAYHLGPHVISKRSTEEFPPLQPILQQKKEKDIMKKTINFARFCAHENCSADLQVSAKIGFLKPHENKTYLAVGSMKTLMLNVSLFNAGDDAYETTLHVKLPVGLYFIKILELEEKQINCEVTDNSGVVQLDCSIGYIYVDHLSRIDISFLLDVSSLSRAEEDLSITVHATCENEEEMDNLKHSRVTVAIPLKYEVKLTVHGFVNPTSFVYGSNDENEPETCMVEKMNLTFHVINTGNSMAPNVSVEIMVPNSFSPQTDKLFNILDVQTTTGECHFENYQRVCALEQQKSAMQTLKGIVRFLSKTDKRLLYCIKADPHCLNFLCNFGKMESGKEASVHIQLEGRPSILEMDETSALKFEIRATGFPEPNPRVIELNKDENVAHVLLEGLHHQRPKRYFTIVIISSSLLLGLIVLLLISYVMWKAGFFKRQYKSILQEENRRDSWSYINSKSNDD
T1 sequence (P05556 21-798): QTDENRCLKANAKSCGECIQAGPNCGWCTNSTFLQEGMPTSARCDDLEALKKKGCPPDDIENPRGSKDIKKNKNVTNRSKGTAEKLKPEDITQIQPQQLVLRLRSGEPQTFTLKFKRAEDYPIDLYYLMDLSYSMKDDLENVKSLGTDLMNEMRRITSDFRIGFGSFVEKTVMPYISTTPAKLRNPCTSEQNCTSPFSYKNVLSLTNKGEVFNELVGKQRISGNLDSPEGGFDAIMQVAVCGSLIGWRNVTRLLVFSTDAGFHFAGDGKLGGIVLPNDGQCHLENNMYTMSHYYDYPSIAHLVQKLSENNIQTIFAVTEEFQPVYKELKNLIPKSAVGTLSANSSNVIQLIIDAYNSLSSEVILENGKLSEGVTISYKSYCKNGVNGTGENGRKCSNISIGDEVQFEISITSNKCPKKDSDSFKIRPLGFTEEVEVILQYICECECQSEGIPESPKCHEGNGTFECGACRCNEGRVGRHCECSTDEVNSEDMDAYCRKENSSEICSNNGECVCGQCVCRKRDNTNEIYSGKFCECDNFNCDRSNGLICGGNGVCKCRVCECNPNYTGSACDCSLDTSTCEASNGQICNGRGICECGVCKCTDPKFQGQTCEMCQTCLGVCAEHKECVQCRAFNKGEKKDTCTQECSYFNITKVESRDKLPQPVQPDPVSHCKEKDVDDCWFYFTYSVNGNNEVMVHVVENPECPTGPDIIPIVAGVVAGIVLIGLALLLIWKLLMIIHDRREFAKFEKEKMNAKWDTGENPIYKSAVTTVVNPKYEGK

Compound	IC50
CCC(CC)C(=O)Nc1ccc(S(=O)(=O)Nc2cc(F)c(C(=O)N[C@@H](Cc3ccc(-n4c(=O)c5ccncc5n(C)c4=O)cc3)C(=O)O)cc2F)cc1 [Compound A3]	2400 nM
CCC(CC)C(=O)Nc1ccc(S(=O)(=O)Nc2cc(F)c(C(=O)N[C@@H](Cc3ccc(-n4c(=O)c(C)c(C)n(C)c4=O)cc3)C(=O)O)cc2F)cc1 [Compound A4]	2500 nM
Cn1c(=O)n(-c2ccc(C[C@H](NC(=O)c3cc(F)c(NS(=O)(=O)c4ccc(NC(=O)NC(C)(C)C)cc4)cc3F)C(=O)O)cc2)c(=O)c2ccncc21 [Compound A5]	2000 nM
Cn1c(=O)n(-c2ccc(C[C@H](NC(=O)c3cc(F)c(NS(=O)(=O)c4ccc(NC(=O)c5ccncc5)cc4)cc3F)C(=O)O)cc2)c(=O)c2ccncc21 [Compound A7]	2000 nM
Cc1c(C)n(C)c(=O)n(-c2ccc(C[C@H](NC(=O)c3cc(F)c(NS(=O)(=O)c4ccc(NC(=O)C(C)(C)C)cc4)cc3F)C(=O)O)cc2)c1=O [Compound A8]	1600 nM
Cc1c(C)n(C)c(=O)n(-c2ccc(C[C@H](NC(=O)c3cc(F)c(NS(=O)(=O)c4cc(NC(=O)C(C)(C)C)cs4)cc3F)C(=O)O)cc2)c1=O [Compound A11]	3200 nM
Cc1c(C)n(C)c(=O)n(-c2ccc(C[C@H](NC(=O)c3cc(F)c(NS(=O)(=O)c4ccc(NC(=O)C(C)(C)C)nc4)cc3F)C(=O)O)cc2)c1=O [Compound A25]	2300 nM
Cn1c(=O)n(-c2ccc(C[C@H](NC(=O)c3cc(F)c(NS(=O)(=O)c4ccc(NC(=O)C(C)(C)C)cc4)cc3F)C(=O)O)cn2)c(=O)c2ccncc21 [Compound A26]	4600 nM
Cc1c(C)n(C)c(=O)n(-c2ccc(C[C@H](NC(=O)c3cc(F)c(NS(=O)(=O)c4ccc(NC(=O)C(C)(C)C)cc4)cc3F)C(=O)O)cn2)c1=O [Compound A28]	3600 nM
Cn1c(=O)n(-c2ccc(C[C@H](NC(=O)c3cc(F)c(NS(=O)(=O)c4ccc(NC(=O)C5(c6ccccc6)CC5)cc4)cc3F)C(=O)O)cn2)c(=O)c2ccncc21 [Compound A29]	12000 nM
Cc1c(C)n(C)c(=O)n(-c2ccc(C[C@H](NC(=O)c3cc(F)c(NS(=O)(=O)c4ccc(NC(=O)C5(c6ccccc6)CC5)cc4)cc3F)C(=O)O)cc2)c1=O [Compound A30]	2700 nM
Cn1c(=O)n(-c2ccc(C[C@H](NC(=O)c3cc(F)c(NS(=O)(=O)c4ccc(NC(=O)C(C)(C)C)cn4)cc3F)C(=O)O)cn2)c(=O)c2ccncc21 [Compound A31]	1900 nM
Cc1c(C)n(C)c(=O)n(-c2ccc(C[C@H](NC(=O)c3cc(F)c(NS(=O)(=O)c4ccc(NC(=O)C(C)(C)C)cn4)cc3F)C(=O)O)cn2)c1=O [Compound A32]	4400 nM
Cc1c(C)n(C)c(=O)n(-c2ccc(C[C@H](NC(=O)c3cc(F)c(NS(=O)(=O)c4ccc(-n5ccc(C6CCOCC6)cc5=O)cc4)cc3F)C(=O)O)cc2)c1=O [Compound A34]	3600 nM
Cc1c(C)n(C)c(=O)n(-c2ccc(C[C@H](NC(=O)c3cc(F)c(NS(=O)(=O)c4ccc(N(C)C(=O)C(C)(C)C)cc4)cc3F)C(=O)O)cc2)c1=O [Compound A35]	3800 nM
COc1cc2c(=O)n(-c3ccc(C[C@H](NC(=O)c4cc(F)c(NS(=O)(=O)c5ccc(NC(=O)C(C)(C)C)cc5)cc4F)C(=O)O)cc3)c(=O)n(C)c2cn1 [Compound A36]	1800 nM
Cc1cn(C)c(=O)n(-c2ccc(C[C@H](NC(=O)c3cc(F)c(NS(=O)(=O)c4ccc(NC(=O)C(C)(C)C)cc4)cc3F)C(=O)O)cc2)c1=O [Compound A37]	4100 nM
CN1C(=O)N(c2ccc(S(=O)(=O)Nc3cc(F)c(C(=O)N[C@@H](Cc4ccc(-n5c(=O)c6ccncc6n(C)c5=O)nc4)C(=O)O)cc3F)cc2)C(=O)C1(C)C [Compound A38]	4000 nM
Cn1c2c(c(=O)n(-c3ccc(C[C@H](NC(=O)c4cc(F)c(NS(=O)(=O)c5ccc(NC(=O)C(C)(C)C)cc5)cc4F)C(=O)O)cn3)c1=O)CCOC2 [Compound A40]	2300 nM
Cn1ccc(=O)n(-c2ccc(C[C@H](NC(=O)c3cc(F)c(NS(=O)(=O)c4ccc(NC(=O)C(C)(C)C)cc4)cc3F)C(=O)O)cc2)c1=O [Compound A42]	2500 nM

These reach a lower IC50. Values come first.

IC50	Compound
440 nM	Cn1c(=O)n(-c2ccc(C[C@H](NC(=O)c3cc(F)c(NS(=O)(=O)c4ccc(NC(=O)C(C)(C)C)cc4)cc3F)C(=O)O)cc2)c(=O)c2ccncc21 [Compound A1, (2S)-2-[[4-[[4-(2,2-dimethylpropanoylamino)phenyl]sulfonylamino]-2,5-difluoro-benzoyl]amino]-3-[4-(1-methyl-2,4-dioxo-pyrido[3,4-d]pyrimidin-3-yl)phenyl]propanoic acid]
1100 nM	CC(=O)Nc1ccc(S(=O)(=O)Nc2cc(F)c(C(=O)N[C@@H](Cc3ccc(-n4c(=O)c5ccncc5n(C)c4=O)cc3)C(=O)O)cc2F)cc1 [Compound A2]
890 nM	Cn1c(=O)n(-c2ccc(C[C@H](NC(=O)c3cc(F)c(NS(=O)(=O)c4ccc(NC(=O)C5CCNCC5)cc4)cc3F)C(=O)O)cc2)c(=O)c2ccncc21 [Compound A6, (2S)-2-[[2,5-difluoro-4-[[4-(piperidine-4-carbonylamino)phenyl]sulfonylamino]benzoyl]amino]-3-[4-(1-methyl-2,4-dioxo-pyrido[3,4-d]pyrimidin-3-yl)phenyl]propanoic acid]
160 nM	Cn1c(=O)n(-c2ccc(C[C@H](NC(=O)c3cc(F)c(NS(=O)(=O)c4ccc(NC(=O)C(C)(C)C)s4)cc3F)C(=O)O)cc2)c(=O)c2ccncc21 [Compound A9]
400 nM	Cc1c(C)n(C)c(=O)n(-c2ccc(C[C@H](NC(=O)c3cc(F)c(NS(=O)(=O)c4ccc(NC(=O)C(C)(C)C)s4)cc3F)C(=O)O)cc2)c1=O [Compound A10]
1200 nM	Cn1c(=O)n(-c2ccc(C[C@H](NC(=O)c3cc(F)c(NS(=O)(=O)c4ccc(NC(=O)C(C)(C)C)c(F)c4)cc3F)C(=O)O)cc2)c(=O)c2ccncc21 [Compound A12]
550 nM	Cn1c(=O)n(-c2ccc(C[C@H](NC(=O)c3cc(F)c(NS(=O)(=O)c4ccc(NC(=O)C5CCOCC5)cc4)cc3F)C(=O)O)cc2)c(=O)c2ccncc21 [Compound A14]
950 nM	Cc1c(C)n(C)c(=O)n(-c2ccc(C[C@H](NC(=O)c3cc(F)c(NS(=O)(=O)c4ccc(NC(=O)C5CCOCC5)cc4)cc3F)C(=O)O)cc2)c1=O [Compound A15]
1200 nM	COC1(C(=O)Nc2ccc(S(=O)(=O)Nc3cc(F)c(C(=O)N[C@@H](Cc4ccc(-n5c(=O)c6ccncc6n(C)c5=O)cc4)C(=O)O)cc3F)cc2)CC1 [Compound A16]
1300 nM	COC1(C(=O)Nc2ccc(S(=O)(=O)Nc3cc(F)c(C(=O)N[C@@H](Cc4ccc(-n5c(=O)c(C)c(C)n(C)c5=O)cc4)C(=O)O)cc3F)cc2)CC1 [Compound A17]
720 nM	Cn1c(=O)n(-c2ccc(C[C@H](NC(=O)c3cc(F)c(NS(=O)(=O)c4ccc(NC(=O)C(C)(C)CO)cc4)cc3F)C(=O)O)cc2)c(=O)c2ccncc21 [Compound A18]
370 nM	Cc1c(C)n(C)c(=O)n(-c2ccc(C[C@H](NC(=O)c3cc(F)c(NS(=O)(=O)c4ccc(NC(=O)C(C)(C)C)cn4)cc3F)C(=O)O)cc2)c1=O [Compound A19]
850 nM	Cc1c(C)n(C)c(=O)n(-c2ccc(C[C@H](NC(=O)c3cc(F)c(NS(=O)(=O)c4ccc(NC(=O)C5(C(F)(F)F)CC5)cc4)cc3F)C(=O)O)cc2)c1=O [Compound A20]
680 nM	Cc1c(C)n(C)c(=O)n(-c2ccc(C[C@H](NC(=O)c3cc(F)c(NS(=O)(=O)c4ccc(NC(=O)C(C)(C)CO)cc4)cc3F)C(=O)O)cc2)c1=O [Compound A21]
830 nM	Cc1c(C)n(C)c(=O)n(-c2ccc(C[C@H](NC(=O)c3cc(F)c(NS(=O)(=O)c4ccc(NC(=O)C5(O)CC5)cc4)cc3F)C(=O)O)cc2)c1=O [Compound A22]
820 nM	Cn1c(=O)n(-c2ccc(C[C@H](NC(=O)c3cc(F)c(NS(=O)(=O)c4ccc(NC(=O)C5(O)CC5)cc4)cc3F)C(=O)O)cc2)c(=O)c2ccncc21 [Compound A23]
1400 nM	Cn1c(=O)n(-c2ccc(C[C@H](NC(=O)c3cc(F)c(NS(=O)(=O)c4ccc(NC(=O)C5(C(F)(F)F)CC5)cc4)cc3F)C(=O)O)cc2)c(=O)c2ccncc21 [Compound A24]
910 nM	Cn1c2c(c(=O)n(-c3ccc(C[C@H](NC(=O)c4cc(F)c(NS(=O)(=O)c5ccc(NC(=O)C(C)(C)C)cc5)cc4F)C(=O)O)cc3)c1=O)CCOC2 [Compound A27]
1000 nM	Cn1c2c(c(=O)n(-c3ccc(C[C@H](NC(=O)c4cc(F)c(NS(=O)(=O)c5ccc(NC(=O)C(C)(C)C)cc5)cc4F)C(=O)O)cc3)c1=O)COCC2 [Compound A33]
480 nM	CN1CCc2c(n(C)c(=O)n(-c3ccc(C[C@H](NC(=O)c4cc(F)c(NS(=O)(=O)c5ccc(NC(=O)C(C)(C)C)cc5)cc4F)C(=O)O)cc3)c2=O)C1 [Compound A41]
